Data on 11 molecules can be found in ChEMBL document CHEMBL1201862, “PubChem BioAssay data set” (2004).

For orientation: GI50 means the concentration giving 50% growth inhibition.

SMILES strings stand for the structures.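 A five-concentration, 48-hour dose response in 96-well plates underlies each endpoint, interpolated linearly between surrounding concentrations. GI50: concentration for 50% inhibition of growth.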 Active and inactive are the calls of the source. Cut-off read from the data, not from the text of the source: active = GI50 up to about 1.1 µM and inactive = higher.

What all share (test): DTP human tumour cell line panel, 48 h
Test [1] concerns SF-268.
Test [2] relates to NCI-H23.
Test [3] deals with SN12C.
Test [4] relates to SR.
Test [5] deals with Malme-3M.
In test [6] the test system is NCI-H522.
Test [7] relates to HOP-92.
The test system of test [8] is MCF7.
The subject of test [9] is SNB-19.
Test [10] has as its system UACC-257.
The test system of test [11] is ACHN.
Test [12] relates to K562.
Test [13] relates to SK-MEL-28.
The test system of test [14] is HCT-116.
Test [15] relates to HT-29.
The test system of test [16] is U-251.
The subject of test [17] is SK-MEL-5.
Test [18] has as its system OVCAR-4.
For test [19], the system named is NCI-H226.
The subject of test [20] is M14.

On to `O=c1n(Cc2ccccc2)c(=O)n2c(=O)n(Cc3ccccc3)c(=O)n12`, for which the GI50 in test [1], in test [2], in test [3], in [4], in [5] and in test [6] was > 100 µM (inactive) in each case. Moreover, the GI50 in test [7], in test [8], in test [9], in test [10], in test [11] and in [12] was > 100 µM (inactive) throughout. Besides, the GI50 in test [13] is > 100 µM (inactive); in test [14], > 100 µM (inactive); in test [15], 54.6 µM (inactive); in test [16], > 100 µM (inactive); in [17] it was > 100 µM (inactive); in test [18] it was > 100 µM (inactive). In addition, the GI50 in test [19] is > 100 µM (inactive).
Consider `CC1(C=O)CCC23COC4(CCC5C6(C)CCC(OC7OCC(OC8OC(CO)C(O)C(OC9OC(CO)C(O)C(O)C9O)C8OC8OCC(O)C(O)C8O)C(O)C7OC7OC(CO)C(O)C(O)C7O)C(C)(C)C6CCC5(C)C4(C)CC2O)C3C1` (configuration not stated), for which the GI50 is 1.14 µM (inactive) in [1]; 1.76 µM (inactive) in test [2]; 0.132 µM (active) in [4]; 1.68 µM (inactive) in test [6]; 0.381 µM (active) in test [7]; 0.822 µM (active) in [8]. Further, the GI50 in test [9] is 0.198 µM (active); in [10], 1.75 µM (inactive); in test [11], 1.3 µM (inactive); in [12], 3.1 µM (inactive); in test [14] it was 1.44 µM (inactive); in test [15], 0.849 µM (active). For the same molecule, the GI50 in test [16] was 2.34 µM (inactive); in test [17], 1.61 µM (inactive); in test [18], 1.16 µM (inactive); in [19] it was 1.8 µM (inactive); in [20] it was 1.52 µM (inactive).
In the case of `O=C1c2ccccc2-c2nc(-c3ccncc3)cc3c2c1nc1ccccc13`, the GI50 is 15.3 µM (inactive) in [2]; 15.1 µM (inactive) in [3]; 2.38 µM (inactive) in [4]; 4.27 µM (inactive) in test [5]; 10.7 µM (inactive) in test [6]; > 100 µM (inactive) in [7]. Further, the GI50 was 16.5 µM (inactive) in test [8]; 23.6 µM (inactive) in test [9]; 19.1 µM (inactive) in test [10]; 8.32 µM (inactive) in test [11]; 16.1 µM (inactive) in [12]; 32.3 µM (inactive) in [13]. Besides, the GI50 in test [14] was 6.4 µM (inactive); in test [15], 24.9 µM (inactive); in test [16] it was 14.9 µM (inactive); in test [18] it was 27.3 µM (inactive); in test [19], 16.6 µM (inactive); in test [20] it was 3.21 µM (inactive).
Consider `O=C(O)c1cc2cc(c1)/N=C/c1ccccc1OCc1cccc(n1)COc1ccccc1/C=N/2`, for which the GI50 in test [1] was 13.2 µM (inactive); in [2] it was > 25 µM (inactive); in test [3], 14.8 µM (inactive); in test [4] it was 6.38 µM (inactive); in test [5], 3.64 µM (inactive); in [6], > 25 µM (inactive). Further, the GI50 in test [7] was 6.73 µM (inactive); in test [8] it was 6.79 µM (inactive); in test [9], 17.3 µM (inactive); in test [10], > 25 µM (inactive); in test [11] it was 23.2 µM (inactive); in [12], 10.1 µM (inactive). Further, the GI50 in test [13] was 23.3 µM (inactive); in [14], 9.14 µM (inactive); in [15] it was 19 µM (inactive); in [16], 7.66 µM (inactive); in test [18], 12.2 µM (inactive); in [19], 10.9 µM (inactive). For the same molecule, the GI50 in test [20] was 11.1 µM (inactive).
Take `C/C(=N\NC(=S)N1CCC(N2CCCCC2)CC1)c1ccccn1`: the GI50 is 3.68 µM (inactive) in [1]; 3.29 µM (inactive) in [2]; 2.7 µM (inactive) in [3]; 0.519 µM (active) in test [4]; > 100 µM (inactive) in test [5]; < 0.01 µM (active) in [6]. In addition, the GI50 is 2.92 µM (inactive) in test [7]; 2.87 µM (inactive) in test [8]; 3.7 µM (inactive) in [9]; 2.9 µM (inactive) in test [10]; 2.41 µM (inactive) in test [11]; 1.29 µM (inactive) in test [12]. Further, the GI50 in [13] was 4.12 µM (inactive); in [14], 2.79 µM (inactive); in test [15], 3.17 µM (inactive); in test [16] it was 3.8 µM (inactive); in test [17], 2.66 µM (inactive); in test [18], 4.73 µM (inactive). In test [20], the GI50 is 1.87 µM (inactive).
In the case of `CC(C)(C)OC(=O)NC(CSCc1ccc(C(=O)c2ccccc2)cc1)C(=O)O` (configuration not stated), the GI50 in [1] was > 100 µM (inactive); in [2], > 100 µM (inactive); in test [3] it was > 100 µM (inactive); in test [4], 87.9 µM (inactive); in test [5], > 100 µM (inactive); in test [6], > 100 µM (inactive). Moreover, the GI50 in [7], in test [8], in [9], in [10], in [11] and in test [12] was > 100 µM (inactive) each time. Besides, the GI50 in test [13] is > 100 µM (inactive); in test [14], > 100 µM (inactive); in [15], > 100 µM (inactive); in test [16] it was > 100 µM (inactive); in test [17], > 100 µM (inactive); in [18], 88.9 µM (inactive). Moreover, in test [19], the GI50 is > 100 µM (inactive).
On to `CCN(CC)C1CCC(C2c3cc4c(cc3OC(N3CCOCC3)C2C)OCO4)CC1` (configuration not stated), for which the GI50 in test [1] was > 100 µM (inactive); in test [2] it was 19.6 µM (inactive); in test [3] it was > 29.2 µM (inactive); in test [4], 23.4 µM (inactive); in [5], 21.6 µM (inactive); in test [6], 12.4 µM (inactive). In addition, the GI50 in test [7] is 4.09 µM (inactive); in test [8] it was 22.6 µM (inactive); in test [9], 71.4 µM (inactive); in test [10] it was 18.4 µM (inactive); in test [11], 16.7 µM (inactive); in test [12] it was 8.77 µM (inactive). Besides, the GI50 is 16.3 µM (inactive) in [13]; 32.3 µM (inactive) in test [14]; 5.75 µM (inactive) in [15]; 37.1 µM (inactive) in test [16]; 9.31 µM (inactive) in [17]; > 100 µM (inactive) in test [18]. Also, in test [20], the GI50 is 13.7 µM (inactive).
On to `Cc1cc(NC(=O)NC(=O)c2ccccc2NC(=O)CN)ccc1Oc1ncc(Br)cn1`, for which the GI50 in test [1] is 1.55 µM (inactive); in test [2], 0.74 µM (active); in [3], 1.16 µM (inactive); in [4] it was 1.06 µM (active); in [5], 0.0632 µM (active); in [7], 3.6 µM (inactive). For the same molecule, the GI50 in test [8] is 0.259 µM (active); in test [9] it was 0.929 µM (active); in test [10], 3.52 µM (inactive); in test [11] it was 9.44 µM (inactive); in [12], 0.419 µM (active); in [13], 0.859 µM (active). The GI50 in test [14] is 0.33 µM (active); in test [15] it was 0.299 µM (active); in test [16], 0.743 µM (active); in test [18] it was 20 µM (inactive); in [19] it was 1.18 µM (inactive); in test [20], 0.592 µM (active).
Consider `O=C1c2ccccc2C(=O)N1n1c(Cc2ccccc2)n[nH]c1=O`, for which the GI50 in test [2], in test [3], in test [4], in test [5], in test [7] and in test [8] was > 100 µM (inactive) throughout. Also, the GI50 in test [9], in [10], in test [11], in test [12], in test [13] and in test [14] was > 100 µM (inactive) each time. For the same molecule, the GI50 in test [15], in test [16], in test [17], in test [18], in [19] and in test [20] was > 100 µM (inactive) each time.
With `COC(=O)C1=C(C)NC(=O)N2[C@@H](CCOCc3ccccc3)CC[C@@H]12`, the GI50 in test [1], in test [2], in test [4], in test [5], in [6] and in [7] was > 50 µM (inactive) throughout. Besides, the GI50 in test [8], in test [9], in test [10], in [11], in test [12] and in test [13] was > 50 µM (inactive) in each case. Also, the GI50 in test [15], in [16], in [17], in [18], in test [19] and in test [20] was > 50 µM (inactive) throughout.
Turning to `CSc1ncc2c(n1)-c1ccccc1OC2N1CCOCC1` (configuration not stated), the GI50 in test [1] was 87.9 µM (inactive); in test [2], > 100 µM (inactive); in [3] it was 50 µM (inactive); in test [4], 64.9 µM (inactive); in [6] it was 34.4 µM (inactive); in [7] it was 41.9 µM (inactive). The GI50 in [8] is 55.8 µM (inactive); in test [9], 68.2 µM (inactive); in test [10] it was 81.8 µM (inactive); in test [11], 80.9 µM (inactive); in test [12] it was 56.1 µM (inactive); in [14], 69.7 µM (inactive). Further, the GI50 in test [15] is 90.4 µM (inactive); in test [16], > 100 µM (inactive); in test [17], 40.4 µM (inactive); in test [18] it was 21.7 µM (inactive); in [19] it was 85.7 µM (inactive); in test [20], > 100 µM (inactive).
